Source: PubChem BioAssay AID1963449 (Molecular Pharmacology Branch, DTP, NCI, 2024)

Test system: 596521-263-R-J1-PDC complex spheroid growth
Test: Anticancer human tumor 596521-263-R-J1-PDC patient-derived soft tissue sarcoma cell line growth inhibition [Asc]
Conditions: for IC50: curve of first compound; for viability, T/C: stronger effect = lower value
Procedure, shortened: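 Tumor cells were grown as complex spheroids with human endothelial cells (HUVEC) and human mesenchymal stem cells as stroma. Agents were tested alone and in combination, in half-log steps down from the clinical Cmax, or from 10 microM where Cmax was unknown.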
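Note: spheroids exposed to compounds for 7 days.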

With `O=C(c1cc(Cc2n[nH]c(=O)c3ccccc23)ccc1F)N1CCN(C(=O)C2CC2)CC1` + CCN1C(C(=O)NC23CCC(C(=O)O)(CC2)CC3)C(c2cccc(Cl)c2F)C2(C(=O)Nc3cc(Cl)ccc32)C12CCCCC2 the IC50 (second compound 0.00949 µM) was greater than 10 µM, the IC50 (second compound 0.03 µM) was greater than 10 µM and the IC50 (second compound 0.0949 µM) was greater than 10 µM. The IC50 (second compound 0.3 µM) was greater than 10 µM, the IC50 (second compound 0.949 µM) was greater than 10 µM and the IC50 (second compound 3 µM) was greater than 10 µM. For the same compound, the viability, T/C (second compound 0.00949 µM, first compound 0.0316 µM) was 101%, the viability, T/C (second compound 0.00949 µM, first compound 0.1 µM) was 87.5% and the viability, T/C (second compound 0.00949 µM, first compound 0.316 µM) was 95.5%. For the same compound, the viability, T/C (second compound 0.00949 µM, first compound 1 µM) was 95%, the viability, T/C (second compound 0.00949 µM, first compound 3.16 µM) was 88% and the viability, T/C (second compound 0.00949 µM, first compound 10 µM) was 67.5%. It also gave a viability, T/C (second compound 0.03 µM, first compound 0.0316 µM) of 101%, a viability, T/C (second compound 0.03 µM, first compound 0.1 µM) of 102% and a viability, T/C (second compound 0.03 µM, first compound 0.316 µM) of 97.6%. For the same compound, the viability, T/C (second compound 0.03 µM, first compound 1 µM) was 93.3%, the viability, T/C (second compound 0.03 µM, first compound 3.16 µM) was 88.4% and the viability, T/C (second compound 0.03 µM, first compound 10 µM) was 64.3%. The viability, T/C (second compound 0.0949 µM, first compound 0.0316 µM) was 101%, the viability, T/C (second compound 0.0949 µM, first compound 0.1 µM) was 93% and the viability, T/C (second compound 0.0949 µM, first compound 0.316 µM) was 108%. For the same compound, the viability, T/C (second compound 0.0949 µM, first compound 1 µM) was 104%, the viability, T/C (second compound 0.0949 µM, first compound 3.16 µM) was 90.6% and the viability, T/C (second compound 0.0949 µM, first compound 10 µM) was 58.6%. The viability, T/C (second compound 0.3 µM, first compound 0.0316 µM) was 95.8%, the viability, T/C (second compound 0.3 µM, first compound 0.1 µM) was 104% and the viability, T/C (second compound 0.3 µM, first compound 0.316 µM) was 107%. The viability, T/C (second compound 0.3 µM, first compound 1 µM) was 96.8%, the viability, T/C (second compound 0.3 µM, first compound 3.16 µM) was 96.9% and the viability, T/C (second compound 0.3 µM, first compound 10 µM) was 68.4%. It also gave a viability, T/C (second compound 0.949 µM, first compound 0.0316 µM) of 104%, a viability, T/C (second compound 0.949 µM, first compound 0.1 µM) of 89.5% and a viability, T/C (second compound 0.949 µM, first compound 0.316 µM) of 96.3%. For the same compound, the viability, T/C (second compound 0.949 µM, first compound 1 µM) was 91.2%, the viability, T/C (second compound 0.949 µM, first compound 3.16 µM) was 75.5% and the viability, T/C (second compound 0.949 µM, first compound 10 µM) was 66.3%. The viability, T/C (second compound 3 µM, first compound 0.0316 µM) was 75.2%, the viability, T/C (second compound 3 µM, first compound 0.1 µM) was 67.3% and the viability, T/C (second compound 3 µM, first compound 0.316 µM) was 74.2%. The viability, T/C (second compound 3 µM, first compound 1 µM) was 73.1%, the viability, T/C (second compound 3 µM, first compound 3.16 µM) was 72.5% and the viability, T/C (second compound 3 µM, first compound 10 µM) was 64.8%.

`CNC(C)C(=O)NC1CN(S(=O)(=O)c2cccc(S(=O)(=O)N3CCC4CCC(C(=O)NC(c5ccccc5)c5ccccc5)N4C(=O)C(NC(=O)C(C)NC)C3)c2)CCC2CCC(C(=O)NC(c3ccccc3)c3ccccc3)N2C1=O` (centres undefined) + Cc1c(S(C)(=O)=O)c(-c2cc(F)cc(N3CCN(c4ccc(NS(=O)(=O)c5ccc(NC(CCN6CCC(C(=O)OCCCP(=O)(O)O)CC6)CSc6ccccc6)c(S(=O)(=O)C(F)(F)F)c5)cc4)CC3)c2)c(-c2ccc(Cl)cc2)n1C(C)C showed an IC50 (second compound 0.0316 µM) greater than 1 µM, an IC50 (second compound 0.1 µM) greater than 1 µM and an IC50 (second compound 0.316 µM) greater than 1 µM. For the same compound, the IC50 (second compound 1 µM) was greater than 1 µM, the IC50 (second compound 3.16 µM) was 0.0238 µM and the IC50 (second compound 10 µM) was less than 0.00316 µM. For the same compound, the viability, T/C (second compound 0.0316 µM, first compound 0.00316 µM) was 84.3%, the viability, T/C (second compound 0.0316 µM, first compound 0.01 µM) was 97.2% and the viability, T/C (second compound 0.0316 µM, first compound 0.0316 µM) was 75.4%. The viability, T/C (second compound 0.0316 µM, first compound 0.1 µM) was 84.7%, the viability, T/C (second compound 0.0316 µM, first compound 0.316 µM) was 89.2% and the viability, T/C (second compound 0.0316 µM, first compound 1 µM) was 75.2%. It also gave a viability, T/C (second compound 0.1 µM, first compound 0.00316 µM) of 86.1%, a viability, T/C (second compound 0.1 µM, first compound 0.01 µM) of 82.5% and a viability, T/C (second compound 0.1 µM, first compound 0.0316 µM) of 82.1%. It also gave a viability, T/C (second compound 0.1 µM, first compound 0.1 µM) of 83%, a viability, T/C (second compound 0.1 µM, first compound 0.316 µM) of 71.9% and a viability, T/C (second compound 0.1 µM, first compound 1 µM) of 69.1%. For the same compound, the viability, T/C (second compound 0.316 µM, first compound 0.00316 µM) was 91.8%, the viability, T/C (second compound 0.316 µM, first compound 0.01 µM) was 89.7% and the viability, T/C (second compound 0.316 µM, first compound 0.0316 µM) was 70.2%. For the same compound, the viability, T/C (second compound 0.316 µM, first compound 0.1 µM) was 70.1%, the viability, T/C (second compound 0.316 µM, first compound 0.316 µM) was 70.9% and the viability, T/C (second compound 0.316 µM, first compound 1 µM) was 56.1%. The viability, T/C (second compound 1 µM, first compound 0.00316 µM) was 74.3%, the viability, T/C (second compound 1 µM, first compound 0.01 µM) was 63.5% and the viability, T/C (second compound 1 µM, first compound 0.0316 µM) was 63.9%. It also gave a viability, T/C (second compound 1 µM, first compound 0.1 µM) of 64.3%, a viability, T/C (second compound 1 µM, first compound 0.316 µM) of 59.4% and a viability, T/C (second compound 1 µM, first compound 1 µM) of 49.5%. The viability, T/C (second compound 3.16 µM, first compound 0.00316 µM) was 54.1%, the viability, T/C (second compound 3.16 µM, first compound 0.01 µM) was 54% and the viability, T/C (second compound 3.16 µM, first compound 0.0316 µM) was 51.8%. The viability, T/C (second compound 3.16 µM, first compound 0.1 µM) was 42.4%, the viability, T/C (second compound 3.16 µM, first compound 0.316 µM) was 35.6% and the viability, T/C (second compound 3.16 µM, first compound 1 µM) was 32.3%. For the same compound, the viability, T/C (second compound 10 µM, first compound 0.00316 µM) was 44.1%, the viability, T/C (second compound 10 µM, first compound 0.01 µM) was 38.6% and the viability, T/C (second compound 10 µM, first compound 0.0316 µM) was 37.1%. For the same compound, the viability, T/C (second compound 10 µM, first compound 0.1 µM) was 34.2%, the viability, T/C (second compound 10 µM, first compound 0.316 µM) was 27% and the viability, T/C (second compound 10 µM, first compound 1 µM) was 20.8%.
